# According to patent publication US20230027066A1 (Urovant Sciences GmbH, priority 2019, published 2023):
# System: men and women with overactive bladder
# Assay: Phase 3 study of vibegron 75 mg vs placebo and tolterodine ER 4 mg, 12 weeks, efficacy (voiding and urine volume diary)
# Format: in vivo, human
# Conditions: for Patients with at Least 75% Reduction in Total Incontinence, Adjusted (%) / Patients with at Least 75% Reduction in Total Incontinence, Adjusted n / Patients with at Least 75% Reduction in Total Incontinence, Unadjusted (%) / Patients with at Least 75% Reduction in Total Incontinence, Unadjusted n / Total Incontinence 75% responders, Active - Placebo CMH Difference: FAS-I
# Protocol: Enrollment of patients included individuals with OAB Wet (those with UUI, the involuntary loss of urine accompanied by urgency) and OAB Dry (those without UUI). A total of 1,518 patients were randomized across 215 study sites into one of three groups for a 12-week treatment period.
# The study consisted of a Screening Period (1 to 5 weeks), a single-blind Run-in Period (2 weeks), a randomized double-blind Treatment Period (12 weeks), and a Follow-up Period (4 weeks).
# Tolterodine ER 4 mg was the active control. […] Between the Baseline and Week 12 Visits, patients had study assessments at Week 4 and Week 8.
# The Patient Voiding Diary was used by participants (via the eDiary or paper Diary) to record the frequency of daily OAB symptoms including all micturitions, urgency, incontinence, and main reason for incontinence by selecting the respective box for each symptom occurring during the course of a given day and night.
# Urine volume data were collected separately by patients using the Urine Volume component of the eDiary, or the paper Urine Volume Chart. The Urine Volume Chart is a tool used in clinical practice and clinical investigation to assess voiding functions over a 24-hour period and is regarded as a useful instrument in the investigation of patients with voiding symptoms. Urine volume may be collected during any one (1) of the 7 Diary Days prior to the visit, and it should be recorded for ˜24 hours starting from the time the patient gets up for the day and continues until the time the patient gets up for the day on the next day.
# For the purpose of this study, the number of micturitions was defined as the number of times a patient has voided in the toilet as indicated on the Patient Voiding Diary. Average daily micturitions were calculated using the daily entries in the Patient Voiding Diary, which was completed over the 7 days prior to each study visit. Average daily number of micturitions were calculated as the total number of micturitions that occurred on a Complete Diary Day divided by the number of Complete Diary Days in the Patient Voiding Diary. A complete diary day required confirmation by the patient in the Patient Voiding Diary that all voids and leakages had been recorded for the diary day. Baseline was defined as the average number of micturitions occurring during the last evaluable diary prior to the Baseline Visit.
# The number of UUI episodes was defined as the number of times a patient had checked “urge” as the reason for accidental urine leakage. Average daily UUI episodes at each study visit were calculated in the same manner as described above for the micturition endpoint. The UUI endpoint were analyzed using only OAB Wet patients.
# For the analysis of the co-primary endpoints (change from baseline in average number of daily micturitions at Week 12 and change from baseline in average number of daily urge urinary incontinence episodes at Week 12, and placebo adjustment of each), a mixed model for repeated measure (MMRM) with restricted maximum likelihood estimation was used. This model corrects for dropout and accounts for the fact that measurements taken on the same patient over time tend to be correlated by using all available information on patients within the same covariate set to derive an estimate of the treatment effect for a dropout-free population. The analysis model for each efficacy endpoint includes terms for treatment, visit, OAB Type (Wet vs Dry), Sex (Female vs Male), Region (US vs Rest of World), baseline score, and interaction of visit by treatment.
# Primary inferences were drawn from treatment differences for the changes from baseline derived from the MMRM models at Week 12. As part of secondary objectives, the treatment differences for each post baseline visit were also derived using the same MMRM model. […]
# [1] = Week 12, events of Events/Censored
# [2] = Week 12, subpopulation Age ≥65 years
# [3] = vibegron 75 mg or tolterodine ER 4 mg
# [4] = vibegron 75 mg or tolterodine ER 4 mg once daily
# [5] = vibegron 75 mg or tolterodine ER 4 mg once daily, OAB Wet
# [6] = vibegron 75 mg or tolterodine ER 4 mg, OAB Wet
compound,measurement,setting,value
"Cc1ccc(O)c([C@H](CCN(C(C)C)C(C)C)c2ccccc2)c1 [Tolterodine ER, tolterodine, reference compound]","Micturitions, Week 12 LS Mean Change from Baseline (Placebo-Adjusted)","Week 12, co-primary endpoint",−0.3
same,"UUI Episodes, Week 12 LS Mean Change from Baseline (Placebo-Adjusted)","Week 12, co-primary endpoint",−0.4
same,"First 50% Reduction in Urgency Episodes, Events",[1],164/253
same,"First 100% Reduction in UUI Episodes, Events",[1],74/245
same,"Total Incontinence Episodes, Week 12 LS Mean Change from Baseline (Placebo-Adjusted)","Week 12, secondary endpoint",−0.5
same,"Urgency Episodes, Week 12 LS Mean Change from Baseline (Placebo-Adjusted)","Week 12, secondary endpoint",−0.4
same,"Micturitions, change at Week 12, mean (SD)",[2],−1.48 (2.15)
same,"UUI Episodes, change at Week 12, mean (SD)",[2],−1.80 (2.41)
same,"Daily Urgency, change at Week 12","Week 12, subpopulation Age ≥65 years, posthoc analysis",−2.1
same,Micturitions: Week 12 CFB Mean (descriptive statistics),"Week 12, ≥65 yrs",−1.48
same,"Patients with at Least 75% Reduction in Total Incontinence, Adjusted (%)",baseline to Week 2,16.5%
same,"Patients with at Least 75% Reduction in Total Incontinence, Adjusted n",baseline to Week 2,53
same,"Patients with at Least 75% Reduction in Total Incontinence, Unadjusted (%)",baseline to Week 2,18.2%
same,"Patients with at Least 75% Reduction in Total Incontinence, Unadjusted n",baseline to Week 2,58
same,"Total Incontinence 75% responders, Active - Placebo CMH Difference",baseline to Week 2,3.6
same,"Patients with at Least 75% Reduction in Total Incontinence, Adjusted (%)",baseline to Week 4,23.5%
same,"Patients with at Least 75% Reduction in Total Incontinence, Adjusted n",baseline to Week 4,75
same,"Patients with at Least 75% Reduction in Total Incontinence, Unadjusted (%)",baseline to Week 4,28.2%
same,"Patients with at Least 75% Reduction in Total Incontinence, Unadjusted n",baseline to Week 4,90
same,"Total Incontinence 75% responders, Active - Placebo CMH Difference",baseline to Week 4,3.7
same,"Patients with at Least 75% Reduction in Total Incontinence, Adjusted (%)",baseline to Week 8,32.5%
same,"Patients with at Least 75% Reduction in Total Incontinence, Adjusted n",baseline to Week 8,104
same,"Patients with at Least 75% Reduction in Total Incontinence, Unadjusted (%)",baseline to Week 8,36.4%
same,"Patients with at Least 75% Reduction in Total Incontinence, Unadjusted n",baseline to Week 8,116
same,"Total Incontinence 75% responders, Active - Placebo CMH Difference",baseline to Week 8,5.1
same,"Patients with at Least 75% Reduction in Total Incontinence, Adjusted (%)",baseline to Week 12,39.9%
same,"Patients with at Least 75% Reduction in Total Incontinence, Adjusted n",baseline to Week 12,127
same,"Patients with at Least 75% Reduction in Total Incontinence, Unadjusted (%)",baseline to Week 12,45.1%
same,"Patients with at Least 75% Reduction in Total Incontinence, Unadjusted n",baseline to Week 12,144
same,"Total Incontinence 75% responders, Active - Placebo CMH Difference",baseline to Week 12,8.4
same,"UUI, Week 12 LS mean change from baseline (placebo adjusted) (95% CI)","subgroup Age <65 years, vibegron 75 mg or tolterodine ER 4 mg",−0.2 (−0.6 to 0.2)
same,"UUI, Week 12 LS mean change from baseline (placebo adjusted) (95% CI)","subgroup Age ≥65 years, vibegron 75 mg or tolterodine ER 4 mg",−0.6 (−1.1 to −0.1)
same,"UUI, Week 12 LS mean change from baseline (placebo adjusted) (95% CI)","subgroup Age ≥75 years (posthoc analysis), vibegron 75 mg or tolterodine ER 4 mg",−1.6 (−2.5 to −0.7)
same,"UUI, Week 12 LS mean change from baseline (placebo adjusted) (95% CI)","subgroup Females, vibegron 75 mg or tolterodine ER 4 mg",−0.4 (−0.7 to −0.1)
same,"UUI, Week 12 LS mean change from baseline (placebo adjusted) (95% CI)","subgroup Males, vibegron 75 mg or tolterodine ER 4 mg",−0.5 (−1.4 to 0.4)
same,"UUI, Week 12 LS mean change from baseline (placebo adjusted) (95% CI)","subgroup Non-White, vibegron 75 mg or tolterodine ER 4 mg",0.1 (−0.6 to 0.7)
same,"UUI, Week 12 LS mean change from baseline (placebo adjusted) (95% CI)","subgroup Region: Non-US, vibegron 75 mg or tolterodine ER 4 mg",−0.6 (−1.5 to 0.2)
same,"UUI, Week 12 LS mean change from baseline (placebo adjusted) (95% CI)","subgroup Region: US, vibegron 75 mg or tolterodine ER 4 mg",−0.3 (−0.7 to 0.0)
same,"UUI, Week 12 LS mean change from baseline (placebo adjusted) (95% CI)","subgroup White, vibegron 75 mg or tolterodine ER 4 mg",−0.5 (−0.8 to −0.2)
same,"average volume voided, placebo-adjusted mean change from baseline, week 12",[3],13.3 mL
same,"placebo-adjusted mean total daily incontinence episodes, week 12",[3],−0.5 episodes
same,"proportion of patients (UUI responders) with 75% or more reduction in daily UUI episodes, week 12",[3],42.2%
same,"Micturitions, active-placebo LS mean difference, Week 2",[4],−0.3
same,"Micturitions, active-placebo LS mean difference, Week 4",[4],−0.4
same,"Micturitions, active-placebo LS mean difference, Week 8",[4],−0.4
same,"Micturitions, active-placebo LS mean difference, Week 12",[4],−0.3
same,"Micturitions, average daily number, Week 2 mean",[4],10.40
same,"Micturitions, average daily number, Week 4 mean",[4],10.10
same,"Micturitions, average daily number, Week 8 mean",[4],9.80
same,"Micturitions, average daily number, Week 12 mean",[4],9.58
same,"Micturitions, change from baseline LS mean, Week 2",[4],−0.6
same,"Micturitions, change from baseline LS mean, Week 4",[4],−0.9
same,"Micturitions, change from baseline LS mean, Week 8",[4],−1.2
same,"Micturitions, change from baseline LS mean, Week 12",[4],−1.6
same,"UUI episodes, active-placebo LS mean difference, Week 2",[5],−0.4
same,"UUI episodes, active-placebo LS mean difference, Week 4",[5],−0.4
same,"UUI episodes, active-placebo LS mean difference, Week 8",[5],−0.4
same,"UUI episodes, average daily number, Week 2 mean",[5],2.24
same,"UUI episodes, average daily number, Week 4 mean",[5],2.06
same,"UUI episodes, average daily number, Week 8 mean",[5],1.74
same,"UUI episodes, average daily number, Week 12 mean",[5],1.55
same,"UUI episodes, change from baseline LS mean, Week 2",[5],−1.2
same,"UUI episodes, change from baseline LS mean, Week 4",[5],−1.4
same,"UUI episodes, change from baseline LS mean, Week 8",[5],−1.6
same,"UUI episodes, change from baseline LS mean, Week 12",[5],−1.8
same,"Time to first 75% reduction in UUI episodes, hazard ratio compared to placebo (proportional hazards)","vibegron 75 mg or tolterodine ER 4 mg, Cox model with sex as covariate",1.276
same,"Estimated incidence of subjects with 75% decrease from baseline in UUI episodes, Week 2",[6],18.8
same,"Estimated incidence of subjects with 75% decrease from baseline in UUI episodes, Week 4",[6],20.7
same,"Estimated incidence of subjects with 75% decrease from baseline in UUI episodes, Week 8",[6],34.3
same,"Estimated incidence of subjects with 75% decrease from baseline in UUI episodes, Week 12",[6],45.7
same,"First 75% reduction in UUI episodes, Events/Censored, Week 2",[6],60/259
same,"First 75% reduction in UUI episodes, Events/Censored, Week 4",[6],66/253
same,"First 75% reduction in UUI episodes, Events/Censored, Week 8",[6],107/212
same,"First 75% reduction in UUI episodes, Events/Censored, Week 12",[6],140/179
same,"Overall time to first 75% decrease in UUI episodes, 25th percentile",[6],4.1 weeks
same,"Overall time to first 75% decrease in UUI episodes, 75th percentile",[6],14.2 weeks
same,"Overall time to first 75% decrease in UUI episodes, median (95% CI)",[6],12.1 (8.6 to 12.3) weeks
same,"Time to first 75% decrease in UUI episodes, Events/Censored (overall)",[6],166/153
